# Structures can show the parent of a compound that is named as a salt.
# System: patients with seasonal allergic rhinitis (SAR)
# Test: MP 428 study: individual symptom severity scores (runny nose, itchy nose, sneezing, congestion; 0-3 scale)
# Type: in vivo, human
# Conditions: Intent-to-Treat Population
# Protocol: A two-week, randomized, double-blind study, which evaluated the effects of the co-administration of ASTELIN® (azelastine hydrochloride (HCl)) and FLONASE® (fluticasone propionate) compared to either product alone in patients with seasonal allergic rhinitis (SAR) was conducted during the 2006 Texas mountain cedar season. After a 5-day placebo lead-in period, 151 patients with moderate-to-severe allergic rhinitis symptoms were randomized to either: (1) (49 total patients) ASTELIN® (azelastine hydrochloride (HCl)) plus placebo saline nasal spray 2 sprays per nostril, 15 minutes apart, twice daily (AM & PM); (2) (50 total patients) FLONASE® (fluticasone propionate) plus placebo saline nasal spray, 2 sprays per nostril, 15 minutes apart, once daily (AM) and two sessions of placebo saline nasal spray, 2 sprays per nostril, 15 minutes apart (PM); or (3) (52 total patients) the co-administration of ASTELIN® (azelastine hydrochloride (HCl)) 2 sprays per nostril plus FLONASE® (fluticasone propionate) 2 sprays per nostril (AM), 15 minutes apart, and ASTELIN® (azelastine hydrochloride (HCl)) 2 sprays per nostril plus placebo saline nasal spray, 15 minutes apart, (PM) for a 2-week double-blind treatment period.
# The primary efficacy variable was the change from baseline in the Total Nasal Symptom Score (TNSS), which comprised sneezing, itchy nose, runny nose, and nasal congestion (individual symptoms scores were assigned a value between 0 and 3, where 0=no symptoms and 3=severe symptoms). This study was not statistically designed to assess the differences between ASTELIN® and FLONASE®.
# The results of the clinical trial are summarized and presented in Appendix A hereinbelow and in FIGS. 1-6. […] FIGS. 2-5 show the mean improvement in severity score (0-3 scale) from baseline for the symptoms of runny nose, itchy nose, sneezing and congestion, respectively.
structure (smiles),measurement,setting,value
"CN1CCCC(n2nc(Cc3ccc(Cl)cc3)c3ccccc3c2=O)CC1 (racemic) [Azelastine, (±)-1-(2H)-phthalazinone, 4-[(4-chlorophenyl)methyl]-2-(hexahydro-1-methyl-1H-azepin-4-yl)-, mono-hydrochloride]","Change from Baseline in AM and PM Combined Nasal Symptom Score: Congestion, LS Mean",Day 9,−1.20
same,"Change from Baseline in AM and PM Combined Nasal Symptom Score: Congestion, Mean",Day 9,−1.23
same,"Change from Baseline in AM and PM Combined Nasal Symptom Score: Congestion, Median",Day 9,−1.00
same,"Change from Baseline in AM and PM Combined Nasal Symptom Score: Itchy Nose, LS Mean",Day 9,−1.29
same,"Change from Baseline in AM and PM Combined Nasal Symptom Score: Itchy Nose, Mean",Day 9,−1.27
same,"Change from Baseline in AM and PM Combined Nasal Symptom Score: Itchy Nose, Median",Day 9,−0.93
same,"Change from Baseline in AM and PM Combined Nasal Symptom Score: Runny Nose, LS Mean",Day 9,−1.14
same,"Change from Baseline in AM and PM Combined Nasal Symptom Score: Runny Nose, Mean",Day 9,−1.15
same,"Change from Baseline in AM and PM Combined Nasal Symptom Score: Runny Nose, Median",Day 9,−0.90
same,"Change from Baseline in AM and PM Combined Nasal Symptom Score: Sneezing, LS Mean",Day 9,−1.72
same,"Change from Baseline in AM and PM Combined Nasal Symptom Score: Sneezing, Mean",Day 9,−1.73
same,"Change from Baseline in AM and PM Combined Nasal Symptom Score: Sneezing, Median",Day 9,−1.67
same,"Percent Change from Baseline in AM and PM Combined Nasal Symptom Score: Congestion, LS Mean",Day 9,−21.68%
same,"Percent Change from Baseline in AM and PM Combined Nasal Symptom Score: Congestion, Mean",Day 9,−22.05%
same,"Percent Change from Baseline in AM and PM Combined Nasal Symptom Score: Congestion, Median",Day 9,−18.64%
same,"Percent Change from Baseline in AM and PM Combined Nasal Symptom Score: Itchy Nose, LS Mean",Day 9,−27.69%
same,"Percent Change from Baseline in AM and PM Combined Nasal Symptom Score: Itchy Nose, Mean",Day 9,−26.97%
same,"Percent Change from Baseline in AM and PM Combined Nasal Symptom Score: Itchy Nose, Median",Day 9,−21.57%
same,"Percent Change from Baseline in AM and PM Combined Nasal Symptom Score: Runny Nose, LS Mean",Day 9,−23.07%
same,"Percent Change from Baseline in AM and PM Combined Nasal Symptom Score: Runny Nose, Mean",Day 9,−23.25%
same,"Percent Change from Baseline in AM and PM Combined Nasal Symptom Score: Runny Nose, Median",Day 9,−21.74%
same,"Percent Change from Baseline in AM and PM Combined Nasal Symptom Score: Sneezing, LS Mean",Day 9,−36.31%
same,"Percent Change from Baseline in AM and PM Combined Nasal Symptom Score: Sneezing, Mean",Day 9,−36.04%
same,"Percent Change from Baseline in AM and PM Combined Nasal Symptom Score: Sneezing, Median",Day 9,−35.48%
same,"Change from Baseline in AM and PM Combined Nasal Symptom Score: Congestion, LS Mean",Day 10,−1.12
same,"Change from Baseline in AM and PM Combined Nasal Symptom Score: Congestion, Mean",Day 10,−1.17
same,"Change from Baseline in AM and PM Combined Nasal Symptom Score: Congestion, Median",Day 10,−1.00
same,"Change from Baseline in AM and PM Combined Nasal Symptom Score: Itchy Nose, LS Mean",Day 10,−1.35
same,"Change from Baseline in AM and PM Combined Nasal Symptom Score: Itchy Nose, Mean",Day 10,−1.35
same,"Change from Baseline in AM and PM Combined Nasal Symptom Score: Itchy Nose, Median",Day 10,−1.10
same,"Change from Baseline in AM and PM Combined Nasal Symptom Score: Runny Nose, LS Mean",Day 10,−1.11
same,"Change from Baseline in AM and PM Combined Nasal Symptom Score: Runny Nose, Mean",Day 10,−1.13
same,"Change from Baseline in AM and PM Combined Nasal Symptom Score: Runny Nose, Median",Day 10,−0.83
same,"Change from Baseline in AM and PM Combined Nasal Symptom Score: Sneezing, LS Mean",Day 10,−1.70
same,"Change from Baseline in AM and PM Combined Nasal Symptom Score: Sneezing, Mean",Day 10,−1.71
same,"Change from Baseline in AM and PM Combined Nasal Symptom Score: Sneezing, Median",Day 10,−1.75
same,"Percent Change from Baseline in AM and PM Combined Nasal Symptom Score: Congestion, LS Mean",Day 10,−20.32%
same,"Percent Change from Baseline in AM and PM Combined Nasal Symptom Score: Congestion, Mean",Day 10,−20.94%
same,"Percent Change from Baseline in AM and PM Combined Nasal Symptom Score: Congestion, Median",Day 10,−16.67%
same,"Percent Change from Baseline in AM and PM Combined Nasal Symptom Score: Itchy Nose, LS Mean",Day 10,−29.83%
same,"Percent Change from Baseline in AM and PM Combined Nasal Symptom Score: Itchy Nose, Mean",Day 10,−29.56%
same,"Percent Change from Baseline in AM and PM Combined Nasal Symptom Score: Itchy Nose, Median",Day 10,−21.57%
same,"Percent Change from Baseline in AM and PM Combined Nasal Symptom Score: Runny Nose, LS Mean",Day 10,−22.00%
same,"Percent Change from Baseline in AM and PM Combined Nasal Symptom Score: Runny Nose, Mean",Day 10,−22.22%
same,"Percent Change from Baseline in AM and PM Combined Nasal Symptom Score: Runny Nose, Median",Day 10,−16.67%
same,"Percent Change from Baseline in AM and PM Combined Nasal Symptom Score: Sneezing, LS Mean",Day 10,−41.13%
same,"Percent Change from Baseline in AM and PM Combined Nasal Symptom Score: Sneezing, Mean",Day 10,−40.82%
same,"Percent Change from Baseline in AM and PM Combined Nasal Symptom Score: Sneezing, Median",Day 10,−38.78%
same,"Change from Baseline in AM and PM Combined Nasal Symptom Score: Congestion, LS Mean",Day 11,−1.18
same,"Change from Baseline in AM and PM Combined Nasal Symptom Score: Congestion, Mean",Day 11,−1.23
same,"Change from Baseline in AM and PM Combined Nasal Symptom Score: Congestion, Median",Day 11,−0.92
same,"Change from Baseline in AM and PM Combined Nasal Symptom Score: Itchy Nose, LS Mean",Day 11,−1.39
same,"Change from Baseline in AM and PM Combined Nasal Symptom Score: Itchy Nose, Mean",Day 11,−1.37
same,"Change from Baseline in AM and PM Combined Nasal Symptom Score: Itchy Nose, Median",Day 11,−1.10
same,"Change from Baseline in AM and PM Combined Nasal Symptom Score: Runny Nose, LS Mean",Day 11,−1.35
same,"Change from Baseline in AM and PM Combined Nasal Symptom Score: Runny Nose, Mean",Day 11,−1.38
same,"Change from Baseline in AM and PM Combined Nasal Symptom Score: Runny Nose, Median",Day 11,−1.10
same,"Change from Baseline in AM and PM Combined Nasal Symptom Score: Sneezing, LS Mean",Day 11,−1.79
same,"Change from Baseline in AM and PM Combined Nasal Symptom Score: Sneezing, Mean",Day 11,−1.79
same,"Change from Baseline in AM and PM Combined Nasal Symptom Score: Sneezing, Median",Day 11,−1.55
same,"Percent Change from Baseline in AM and PM Combined Nasal Symptom Score: Congestion, LS Mean",Day 11,−20.72%
same,"Percent Change from Baseline in AM and PM Combined Nasal Symptom Score: Congestion, Mean",Day 11,−21.53%
same,"Percent Change from Baseline in AM and PM Combined Nasal Symptom Score: Congestion, Median",Day 11,−16.67%
same,"Percent Change from Baseline in AM and PM Combined Nasal Symptom Score: Itchy Nose, LS Mean",Day 11,−30.38%
same,"Percent Change from Baseline in AM and PM Combined Nasal Symptom Score: Itchy Nose, Mean",Day 11,−29.59%
same,"Percent Change from Baseline in AM and PM Combined Nasal Symptom Score: Itchy Nose, Median",Day 11,−22.33%
same,"Percent Change from Baseline in AM and PM Combined Nasal Symptom Score: Runny Nose, LS Mean",Day 11,−25.36%
same,"Percent Change from Baseline in AM and PM Combined Nasal Symptom Score: Runny Nose, Mean",Day 11,−25.83%
same,"Percent Change from Baseline in AM and PM Combined Nasal Symptom Score: Runny Nose, Median",Day 11,−21.57%
same,"Percent Change from Baseline in AM and PM Combined Nasal Symptom Score: Sneezing, LS Mean",Day 11,−43.40%
same,"Percent Change from Baseline in AM and PM Combined Nasal Symptom Score: Sneezing, Mean",Day 11,−42.70%
same,"Percent Change from Baseline in AM and PM Combined Nasal Symptom Score: Sneezing, Median",Day 11,−38.78%
same,"Change from Baseline in AM and PM Combined Nasal Symptom Score: Congestion, LS Mean",Day 12,−1.21
same,"Change from Baseline in AM and PM Combined Nasal Symptom Score: Congestion, Mean",Day 12,−1.27
same,"Change from Baseline in AM and PM Combined Nasal Symptom Score: Congestion, Median",Day 12,−1.00
same,"Change from Baseline in AM and PM Combined Nasal Symptom Score: Itchy Nose, LS Mean",Day 12,−1.33
same,"Change from Baseline in AM and PM Combined Nasal Symptom Score: Itchy Nose, Mean",Day 12,−1.33
same,"Change from Baseline in AM and PM Combined Nasal Symptom Score: Itchy Nose, Median",Day 12,−1.00
same,"Change from Baseline in AM and PM Combined Nasal Symptom Score: Runny Nose, LS Mean",Day 12,−1.22
same,"Change from Baseline in AM and PM Combined Nasal Symptom Score: Runny Nose, Mean",Day 12,−1.25
same,"Change from Baseline in AM and PM Combined Nasal Symptom Score: Runny Nose, Median",Day 12,−0.43
same,"Change from Baseline in AM and PM Combined Nasal Symptom Score: Sneezing, LS Mean",Day 12,−1.63
same,"Change from Baseline in AM and PM Combined Nasal Symptom Score: Sneezing, Mean",Day 12,−1.63
same,"Change from Baseline in AM and PM Combined Nasal Symptom Score: Sneezing, Median",Day 12,−1.73

# — patent US8758816B2, “Compositions comprising azelastine and methods of use thereof” (priority 2004, dated 2014)
